Data reported in PubChem BioAssay (NCI).
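Each compound was tested at five concentrations against cells in 96-well plates for 48 hours. GI50: concentration for 50% inhibition of growth. TGI: concentration producing complete growth inhibition.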

Experiments:
Assay in all cases: NCI tumour cell line growth inhibition, 48 h
[1] = tested on: OVCAR-5 ovarian
[2] = tested on: OVCAR-3 ovarian
[3] = tested on: NCI-H23 lung
[4] = tested on: U251 CNS
[5] = tested on: HOP-92 NSCLC
[6] = tested on: SR leukemia
[7] = tested on: SF-539 CNS
[8] = tested on: HT29 colon
[9] = tested on: M14 melanoma
[10] = tested on: OVCAR-4 ovarian

SMILES	TGI [1] [µM]	TGI [2] [µM]	TGI [3] [µM]	TGI [4] [µM]	TGI [5] [µM]	TGI [6] [µM]	TGI [7] [µM]	TGI [8] [µM]	TGI [9] [µM]	TGI [10] [µM]	GI50 [1] [µM]	GI50 [2] [µM]	GI50 [3] [µM]	GI50 [4] [µM]	GI50 [5] [µM]	GI50 [6] [µM]	GI50 [7] [µM]	GI50 [8] [µM]	GI50 [9] [µM]	GI50 [10] [µM]
O=C1CCCCCCCCCCOC(=O)CCCCCCCCCCO1	> 100	> 100	> 100	> 100	> 100	> 100	> 100	> 100	> 100	> 100	–	–	–	–	–	–	–	–	–	–
COc1c(OC)c(OC)c(-c2cc(=O)c3c(OC)c(OC)c(OC)c(OC)c3o2)c(OC)c1OC	> 100	33.5	95.7	> 100	44.9	> 100	> 100	86.4	> 100	33.7	–	–	–	–	–	–	–	–	–	–
C=C(C)C1CCC2(C(=O)O)CCC3(C)C(CCC4C5(C)CCC(O)C(C)(C)C5CCC43C)C12 (centres undefined)	26.1	7.98	12.7	22	12.4	27.6	16.7	23.9	27.7	14.7	–	–	–	–	–	–	–	–	–	–
O=C1NC(Cc2ccccc2)C(=O)N2CCCC12 (centres undefined)	> 100	> 100	–	> 100	> 100	> 100	> 100	> 100	> 100	> 100	–	–	–	–	–	–	–	–	–	–
NCCCCCCCCCn1c2c(c3ccccc3c1=O)C(=O)c1ccccc1-2	19.5	18.8	17	19.1	21.1	> 50	19.3	27.1	18	25.9	9.6	9.46	7.94	9.52	10.1	1.55	9.83	8.5	9.67	10.3
C=CNC(=S)n1nc(-c2ccccc2NC(=O)C(F)(F)F)c(=O)n(C(=S)NC=C)c1=S	> 100	28.8	> 100	> 100	36.5	73.7	> 1	60.1	> 100	19.6	–	–	–	–	–	–	–	–	–	–
O=C(Nc1nc(-c2ccccc2Cl)cs1)c1cc(-c2ccc(Cl)cc2)nc2ccc(Cl)cc12	> 100	13.1	> 100	28.6	8.43	> 100	8.31	> 100	4.76	> 100	23.1	2.64	3.8	3.42	1.42	3.15	2.12	3.52	0.918	9.92
O=[P+](O)c1cccnc1	> 100	> 100	> 100	> 100	> 100	> 100	> 100	> 100	> 100	> 100	–	–	–	–	–	–	–	–	–	–
COc1cccc(/C=C2\CCc3ccccc3C2=O)c1	42.7	26.2	40.1	20.2	35.4	15.1	36.9	19.4	39.6	54.5	17.6	12.9	16.3	5.3	13.3	3.1	16.4	5.89	17	13.7
